{"source": "patent US20240124436A1", "about": "(priority 2019, published 2024)", "system": "pathogens of rice blast", "assay_type": "cell-based", "conditions": "25° C., 6 days, elongation length of hyphae", "note": "Where two headings read alike, the source gives them in different places.", "data": [{"smiles": "COc1nc(-c2nccs2)nc(F)c1C(F)(F)F", "note": "[Example 3, 6-fluoro-4-methoxy-2-(2-thiazolyl)-5-(trifluoromethyl)pyrimidine]", "values": [{"measurement": "Control value", "setting": "test solution 1000 ppm, 1,000 μl on oatmeal culture medium", "result": 68}, {"measurement": "Control value", "setting": "test solution 2000 ppm, 1,000 μl on oatmeal culture medium", "result": 100}]}]}
